Test: diffusion across skin after transdermal spray administration
Settings: effect of adding octyl salicylate to the transdermal spray formulation (Example 1); predicted cumulative amount, FIGS. 1 and 2

C[C@]12CC[C@@H]3c4ccc(O)cc4CC[C@H]3[C@@H]1CC[C@@H]2O [estradiol]
amount diffusing across the skin over 24 hours: significant marked increase
